US20170368082A1, “FORMULATIONS OF BRINCIDOFOVIR” (priority 2016, published 2017)

Assay: Tissue distribution by quantitative whole-body autoradiography (QWBA)
Format: in vivo, male Sprague Dawley and Long-Evans rats
Settings: for AUCall Ratio (PO/IV) / Cmax Ratio (PO/IV): 15 mg/kg, Group 7 vs Group 4
Protocol: The study utilized 4 groups of male SD rats (albino), and 3 groups of male LE rats (pigmented); a total of 39 rats. All animals were obtained from Hilltop Lab Animals, Inc. (Scottdale, Pa.). […] Rats in Group 5 were administered a single 2-h IV infusion of [^14C]brincidofovir at a target dose of 2 mg/kg. […] Three dosing formulations (one for high dose IV, one for low dose IV, and one for PO dose) were prepared at QPS on the day of dosing. The IV formulation for Groups 1, 2, 3, and 4 contained a vehicle of 10 mM sodium phosphate buffer in 5% dextrose solution at pH 8.0(±0.1).
Each animal, at their respective termination time points, was euthanized for QWBA analysis immediately after blood collection. One rat per time point per Group was euthanized as listed below.
The blood samples were maintained on wet ice (approximately 4° C.) and then centrifuged to obtain plasma within 1 h of the blood collection time. Centrifuge settings were recorded in the study notebook. Duplicate aliquots of plasma (0.050 mL) were analyzed for radioactivity using direct counting by LSC, and residual plasma was stored at approximately −70° C. and was saved for possible future analysis under a separate study protocol. Residual red blood cells were discarded as radioactive waste.
The pinna, distal limbs, hair, and tail were removed from each frozen carcass and each frozen carcass was embedded in an aqueous suspension of approximately 2% (w/v) carboxymethylcellulose and frozen into a block. The blocks were stored at approximately −20° C. prior to sectioning. Each blocked carcass was mounted on the object stage of a cryomicrotome (Leica CM3600 Cryomacrocut, Nussloch, Germany and Vibratome 9800, St. Louis, Mo.) maintained at approximately −20° C. and internal standards (3), which were plasma fortified with [^14C]-glucose at one concentration (approximately 0.05 μCi/mL), were placed into the frozen blocks, prior to sectioning, and were used for section thickness quality control. A number of whole-body sections (approximately 40 μm thick) were taken in the sagittal plane at various levels of interest using a whole-body cryomicrotome set at −20° C. Sagittal sections (20-50 μm thick) of frozen carcasses were exposed to phosphor imaging plates. Regions of images in tissues were converted to concentrations using standards. All of the major tissues, organs, and biological fluids were represented.
Tissue concentration data was determined for the following tissues and/or contents: adipose (brown and white), adrenal gland, bile (in duct), blood (cardiac), bone, bone marrow, brain (cerebrum, cerebellum, medulla), cecum (and contents), large intestine (and contents), epididymis, esophagus, eye (uvea and lens), Harderian gland, heart, kidney (cortex and medulla), liver, lung, lymph node, pancreas, pituitary gland, prostate gland, salivary gland, seminal vesicles, skeletal muscle, skin (pigmented and non-pigmented), small intestine (and contents), stomach (gastric mucosa and contents), spleen, spinal cord, testis, thymus, thyroid, and urinary bladder (and contents).
The imaging plate and sections were placed in light-tight exposure cassettes, in a copper-lined lead safe, for a 4-day exposure at room temperature. […] Quantification was performed by image densitometry using MCD image analysis software (v. 7.0, Interfocus Imaging Ltd) and a standard curve constructed from the integrated response [i.e., Molecular Dynamics Counts per square millimeter (MDC/mm^2)] and the nominal concentrations of the ^14C-calibration standards. The concentrations of radioactivity were expressed as the μg equivalents of [^14C]brincidofovir per gram sample (μg equiv/g). A lower limit of quantification (LLOQ) was applied to the data (See section 6.7.4).
Tissue concentrations that fell below the LLOQ were identified as being below the quantification limit (BQL). Tissue areas that were not visualized on autoradiographic images were identified as no sample (NS) and reported as BQL.

CCCCCCCCCCCCCCCCOCCCOP(=O)(O)CO[C@H](CO)Cn1ccc(N)nc1=O [[^14C] brincidofovir]
AUCall Ratio (PO/IV) (Adipose (brown)): 0.25 | Cmax Ratio (PO/IV) (Adipose (brown)): 0.18 | AUCall (Adipose (brown), 2 h IV infusion 15 mg/kg, Group 4): 96.6220 μg equiv · h/g | Tissue Concentration (168 h) (Adipose (brown), 2 h IV infusion 15 mg/kg, Group 4, LLOQ 0.036): 0.132 μg equiv/g | Tissue Concentration (168 h) (Adipose (brown), PO 15 mg/kg, Group 7, LLOQ 0.034): 0.037 μg equiv/g | AUCall (Adipose (brown), PO 15 mg/kg, Group 7): 24.3703 μg equiv · h/g | AUCall Ratio (PO/IV) (Adipose (white)): 0.16 | Cmax Ratio (PO/IV) (Adipose (white)): 0.24 | AUCall (Adipose (white), 2 h IV infusion 15 mg/kg, Group 4): 7.1955 μg equiv · h/g | Tissue Concentration (168 h) (Adipose (white), 2 h IV infusion 15 mg/kg, Group 4, LLOQ 0.036): BQL | Tissue Concentration (168 h) (Adipose (white), PO 15 mg/kg, Group 7, LLOQ 0.034): BQL | AUCall (Adipose (white), PO 15 mg/kg, Group 7): 1.1215 μg equiv · h/g | AUCall Ratio (PO/IV) (Adrenal Gland): 0.19 | Cmax Ratio (PO/IV) (Adrenal Gland): 0.28 | AUCall (Adrenal Gland, 2 h IV infusion 15 mg/kg, Group 4): 384.2580 μg equiv · h/g | Tissue Concentration (168 h) (Adrenal Gland, 2 h IV infusion 15 mg/kg, Group 4, LLOQ 0.036): 0.49 μg equiv/g | Tissue Concentration (168 h) (Adrenal Gland, PO 15 mg/kg, Group 7, LLOQ 0.034): 0.058 μg equiv/g | AUCall (Adrenal Gland, PO 15 mg/kg, Group 7): 74.5860 μg equiv · h/g | AUCall Ratio (PO/IV) (Blood (cardiac)): 0.48 | Cmax Ratio (PO/IV) (Blood (cardiac)): 0.21 | AUCall (Blood (cardiac), 2 h IV infusion 15 mg/kg, Group 4): 45.3555 μg equiv · h/g | Tissue Concentration (168 h) (Blood (cardiac), 2 h IV infusion 15 mg/kg, Group 4, LLOQ 0.036): BQL | Tissue Concentration (168 h) (Blood (cardiac), PO 15 mg/kg, Group 7, LLOQ 0.034): BQL | AUCall (Blood (cardiac), PO 15 mg/kg, Group 7): 21.9165 μg equiv · h/g | AUCall Ratio (PO/IV) (Bone Marrow): 0.35 | Cmax Ratio (PO/IV) (Bone Marrow): 0.12 | AUCall (Bone Marrow, 2 h IV infusion 15 mg/kg, Group 4): 197.3860 μg equiv · h/g | Tissue Concentration (168 h) (Bone Marrow, 2 h IV infusion 15 mg/kg, Group 4, LLOQ 0.036): 0.232 μg equiv/g | Tissue Concentration (168 h) (Bone Marrow, PO 15 mg/kg, Group 7, LLOQ 0.034): 0.094 μg equiv/g | AUCall (Bone Marrow, PO 15 mg/kg, Group 7): 68.7413 μg equiv · h/g | AUCall Ratio (PO/IV) (Bone): 0.30 | Cmax Ratio (PO/IV) (Bone): 0.39 | AUCall (Bone, 2 h IV infusion 15 mg/kg, Group 4): 6.1805 μg equiv · h/g | Tissue Concentration (168 h) (Bone, 2 h IV infusion 15 mg/kg, Group 4, LLOQ 0.036): BQL | Tissue Concentration (168 h) (Bone, PO 15 mg/kg, Group 7, LLOQ 0.034): BQL | AUCall (Bone, PO 15 mg/kg, Group 7): 1.8470 μg equiv · h/g | AUCall Ratio (PO/IV) (Brain (cerebellum)): 0.07 | Cmax Ratio (PO/IV) (Brain (cerebellum)): 0.07 | AUCall (Brain (cerebellum), 2 h IV infusion 15 mg/kg, Group 4): 12.1870 μg equiv · h/g | Tissue Concentration (168 h) (Brain (cerebellum), 2 h IV infusion 15 mg/kg, Group 4, LLOQ 0.036): BQL | Tissue Concentration (168 h) (Brain (cerebellum), PO 15 mg/kg, Group 7, LLOQ 0.034): BQL | AUCall (Brain (cerebellum), PO 15 mg/kg, Group 7): 0.8610 μg equiv · h/g | AUCall Ratio (PO/IV) (Brain (cerebrum)): 0.08 | Cmax Ratio (PO/IV) (Brain (cerebrum)): 0.07 | AUCall (Brain (cerebrum), 2 h IV infusion 15 mg/kg, Group 4): 9.1765 μg equiv · h/g | Tissue Concentration (168 h) (Brain (cerebrum), 2 h IV infusion 15 mg/kg, Group 4, LLOQ 0.036): BQL | Tissue Concentration (168 h) (Brain (cerebrum), PO 15 mg/kg, Group 7, LLOQ 0.034): BQL | AUCall (Brain (cerebrum), PO 15 mg/kg, Group 7): 0.7650 μg equiv · h/g | AUCall Ratio (PO/IV) (Brain (medulla)): 0.06 | Cmax Ratio (PO/IV) (Brain (medulla)): 0.06 | AUCall (Brain (medulla), 2 h IV infusion 15 mg/kg, Group 4): 9.7470 μg equiv · h/g | Tissue Concentration (168 h) (Brain (medulla), 2 h IV infusion 15 mg/kg, Group 4, LLOQ 0.036): BQL | Tissue Concentration (168 h) (Brain (medulla), PO 15 mg/kg, Group 7, LLOQ 0.034): BQL | AUCall (Brain (medulla), PO 15 mg/kg, Group 7): 0.5770 μg equiv · h/g | AUCall Ratio (PO/IV) (Cecum): 0.48 | Cmax Ratio (PO/IV) (Cecum): 1.07
